Data as given in US6403626B1, “Benzimidazole derivatives” (Synaptic Pharmaceutical Corporation, priority 1994, dated 2002).
Where two headings read alike, the source gives them in different places.

What was measured:
[1] = molecular target: T1, α2C Human Adrenergic Receptor (Homo sapiens, UniProt P18825); assay type: cell-based; parameters: The entire coding region of α2C (1383 bp), including 2 bp of 5′ UT and 400 bp of 3′ UT; expressed in transfected cells; host or cells: LM(tk-) cells; settings: for I.A Alpha-2 C: functional cAMP assay
T1 sequence (P18825 1-462): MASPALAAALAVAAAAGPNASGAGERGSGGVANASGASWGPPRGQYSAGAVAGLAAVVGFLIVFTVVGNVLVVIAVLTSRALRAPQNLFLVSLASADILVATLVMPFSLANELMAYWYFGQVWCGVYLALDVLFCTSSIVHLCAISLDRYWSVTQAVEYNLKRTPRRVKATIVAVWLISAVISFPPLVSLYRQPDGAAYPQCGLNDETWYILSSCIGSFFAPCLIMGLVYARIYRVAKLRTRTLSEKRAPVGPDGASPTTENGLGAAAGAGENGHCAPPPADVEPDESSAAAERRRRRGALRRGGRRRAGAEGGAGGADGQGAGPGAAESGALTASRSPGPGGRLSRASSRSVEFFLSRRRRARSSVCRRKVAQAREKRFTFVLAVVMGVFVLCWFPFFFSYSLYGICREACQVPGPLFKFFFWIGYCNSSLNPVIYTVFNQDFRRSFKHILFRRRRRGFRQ

[2] = system: Adult rhesus monkeys (Macaca mulatta); experiment: Sedation and muscle relaxation rating; assay type: in vivo; settings: subcutaneous, cumulative dosing 0.1-3.2 mg/kg, versus clonidine 0.032-1.0 mg/kg
Source text: Subjects. Adult rhesus monkeys (Macaca mulatta) of either sex were housed individually with free access to water. They were fed fresh fruit weekly and approximately 40 biscuits (Purina Monkey Chow) daily.
Procedure. Monkeys were trained to receive subcutaneous injections while in their home cages; they were rated by one non-blind observer familiar with the individual subjects, according to modified rating scales for sedation and muscle relaxation (Table 2); Separate scales describe increasing degrees of sedation (as measured by responsiveness to stimuli) and muscle relaxation (as observed through changes in posture). Animals were injected in a cumulative dosing procedure with a 30 minute interinjection interval; observer rating on both scales took place approximately 15 minutes after each injection.
Design. […] The same three monkeys were typically studied under each se of conditions.

[3] = molecular target: α2C Human Adrenergic Receptor (Homo sapiens, UniProt P18825); experiment: Equilibrium competition binding, [3H] rauwolscine, membranes of transfected LM(tk-) cells
[4] = inhibition of forskolin-stimulated cAMP, NA: Not Active, read-out: pEC50 Alpha-2 C (converted)

| Compound | EC50 [1] [nM] | I.A Alpha-2 C [1] | also measured |
| --- | --- | --- | --- |
| c1nc2ccc(NC3=NCCN3)cc2[nH]1 [Example 1, 5-(2-Imidazolin-2-ylamino)Benzimidazole] | 2.75 | 1.00 |  |
| Brc1c(NC2=NCCN2)ccc2nc[nH]c12 [Example 2, 4-Bromo-5-(2-imidazolin-2-ylamino)Benzimidazole] |  | 1.00 | EC50 [1, 4]: 117 nM |
| Clc1c(NC2=NCCN2)ccc2nc[nH]c12 [Example 3, 4-Chloro-5-(2-imidazolin-2-ylamino)Benzimidazole] | 0.562 | 1.00 |  |
| Cc1c(N=C2NCCN2)ccc2[nH]cnc12 [Example 4, 4-Methyl-5-(2-imidazolin-2-ylamino)Benzimidazole] |  |  | sedation [2]: decreased sedation relative to the reference compound, clonidine; EC50 [1, 4]: 0.355 nM |
| Ic1c(NC2=NCCN2)ccc2nc[nH]c12 [Example 5, 4-Iodo-5-(2-imidazolin-2-ylamino)Benzimidazole] | 1.35 | 1.00 |  |
| CCCc1c(NC2=NCCN2)ccc2nc[nH]c12 [Example 7, 4-n-Propyl-5-(2-imidazolin-2-ylamino)Benzimidazole] | 6.17 | 1.00 |  |
| CCCCc1c(NC2=NCCN2)ccc2nc[nH]c12 [Example 8, 4-n-Butyl-5-(2-imidazolin-2-ylamino)Benzimidazole] |  | 1.00 |  |
| Cn1cnc2cc(NC3=NCCN3)ccc21 [Example 9, 1-Methyl-5-(2-imidazolin-2-ylamino)Benzimidazole] |  | 1.00 |  |
| Cn1cnc2c(Br)c(NC3=NCCN3)ccc21 [Example 10, 1-Methyl-4-bromo-5-(2-imidazolin-2-ylamino)Benzimidazole] | 2.34 | 1.00 | melting point: 237 to 238 °C |
| Cn1cnc2ccc(NC3=NCCN3)c(Br)c21 [Example 12, 3-Methyl-4-bromo-5-(imidazolin-2-ylamino)Benzimidazole] |  | 1.00 | pEC50 Alpha-2 C ([1]; inhibition of forskolin-stimulated cAMP, NA: Not Active): 7.76 |
| OCCn1cnc2c(Br)c(NC3=NCCN3)ccc21 [Example 38, 1-(2-Hydroxyethyl)-4-bromo-5-(2-imidazolin-2-ylamino)Benzimidazole] |  | 1.00 | EC50 [1, 4]: 363 nM |
| CCc1nc2ccc(NC3=NCCN3)c(Br)c2[nH]1 [Example 43, 2-Ethyl-4-bromo-5-(2-imidazolin-2-ylamino)Benzimidazole] |  | 0.90 |  |
| CC(C)c1nc2ccc(NC3=NCCN3)c(Br)c2[nH]1 [Example 44, 2-Isopropyl-4-bromo-5-(2-imidazolin-2-ylamino)Benzimidazole] |  | 0.80 | EC50 [1, 4]: 182 nM |
| CC(C)(C)c1nc2ccc(NC3=NCCN3)c(Br)c2[nH]1 [Example 45, 2-tert-Butyl-4-bromo-5-(2-imidazolin-2-ylamino)Benzimidazole] |  | 0.60 |  |
| FC(F)(F)c1nc2ccc(NC3=NCCN3)c(Br)c2[nH]1 [Example 46, 2-Trifluoromethyl-4-bromo-5-(2-imidazolin-2-ylamino)Benzimidazole] |  | 0.90 | Ki [3]: 1480 nM |
| Brc1c(NC2=NCCN2)ccc2nc(C(c3ccccc3)c3ccccc3)[nH]c12 [Example 48, 2-Diphenylmethyl-4-bromo-5-(2-imidazolin-2-ylamino)Benzimidazole] |  | 0.60 | EC50 [1, 4]: 1.35 nM |
| Brc1cc2nc[nH]c2c(Br)c1NC1=NCCN1 [Example 50, 4,6-Dibromo-5-(2-imidazolin-2-ylamino)Benzimidazole] | 70.8 | 1.00 |  |
| Clc1cc(NC2=NCCN2)cc2[nH]cnc12 [Example 53, 7-Chloro-5-(2-imidazolin-2-ylamino)Benzimidazole] | 1.07 | 1.00 |  |
| CCCCc1cc(NC2=NCCN2)cc2[nH]cnc12 [Example 56, 7-Butyl-5-(2-imidazolin-2-ylamino)Benzimidazole] |  | 1.00 |  |
| Clc1cc(NC2=NCCN2)c(Br)c2[nH]cnc12 [Example 60, 4-Bromo-7-chloro-5-(2-imidazolin-2-ylamino)Benzimidazole] | 0.398 | 1 |  |
